Data published in ChEMBL document CHEMBL4649997, “Data for probe TP-472” (2021).

Key:
[1] = target: Histone acetyltransferase KAT2A (Homo sapiens) (UniProt Q92830); conditions: Compound concentration 10.0 uM, Protein concentration 2.0 uM
[2] = target: Transcription intermediary factor 1-beta (Homo sapiens) (UniProt Q13263); conditions: Compound concentration 10.0 uM, Protein concentration 2.0 uM
[3] = target: Transcription initiation factor TFIID subunit 1-like (Homo sapiens) (UniProt Q8IZX4); conditions: Compound concentration 10.0 uM, Protein concentration 2.0 uM
[4] = target: Nuclear body protein SP140-like protein (Homo sapiens) (UniProt Q9H930); conditions: Compound concentration 10.0 uM, Protein concentration 2.0 uM
[5] = target: Bromodomain-containing protein 4 (Homo sapiens) (UniProt O60885); conditions: Compound concentration 10.0 uM, Protein concentration 2.0 uM
[6] = target: Peregrin (Homo sapiens) (UniProt P55201); conditions: Compound concentration 10.0 uM, Protein concentration 2.0 uM
[7] = target: Transcription intermediary factor 1-alpha (Homo sapiens) (UniProt O15164); conditions: Compound concentration 10.0 uM, Protein concentration 2.0 uM
[8] = target: Bromodomain adjacent to zinc finger domain protein 1A (Homo sapiens) (UniProt Q9NRL2); conditions: Compound concentration 10.0 uM, Protein concentration 2.0 uM
[9] = target: T1, Chromatin remodeling regulator CECR2 (Homo sapiens, UniProt Q9BXF3); conditions: Compound concentration 10.0 uM, Protein concentration 2.0 uM
[10] = target: Bromodomain-containing protein 3 (Homo sapiens) (UniProt Q15059); conditions: Compound concentration 10.0 uM, Protein concentration 2.0 uM
[11] = target: Transcription initiation factor TFIID subunit 1-like (Homo sapiens) (UniProt Q8IZX4); conditions: Compound concentration 10.0 uM, Protein concentration 2.0 uM; remark: listed apart in the source
[12] = target: Bromodomain-containing protein 1 (Homo sapiens) (UniProt O95696); conditions: Compound concentration 10.0 uM, Protein concentration 2.0 uM
[13] = target: T1, Chromatin remodeling regulator CECR2; assay: Alphascreen assay. Binding to CECR2A (domain start/stop: P420-D543) by alphascreen assay
[14] = target: Protein polybromo-1 (Homo sapiens) (UniProt Q86U86); conditions: Compound concentration 10.0 uM, Protein concentration 2.0 uM
[15] = target: Bromodomain-containing protein 7 (Homo sapiens) (UniProt Q9NPI1); conditions: Compound concentration 10.0 uM, Protein concentration 2.0 uM
[16] = target: Bromodomain-containing protein 3 (Homo sapiens) (UniProt Q15059); conditions: Compound concentration 10.0 uM, Protein concentration 2.0 uM; remark: listed apart in the source
[17] = target: PH-interacting protein (Homo sapiens) (UniProt Q8WWQ0); conditions: Compound concentration 10.0 uM, Protein concentration 2.0 uM
[18] = target: T1, Chromatin remodeling regulator CECR2; assay: Alphascreen assay. Binding to CECR2A (domain start/stop: P420-H538) by alphascreen assay
[19] = target: ATPase family AAA domain-containing protein 2 (Homo sapiens) (UniProt Q6PL18); conditions: Compound concentration 10.0 uM, Protein concentration 2.0 uM
[20] = target: Histone acetyltransferase KAT2B (Homo sapiens) (UniProt Q92831); conditions: Compound concentration 10.0 uM, Protein concentration 2.0 uM
[21] = target: T2, CREB-binding protein (Homo sapiens, UniProt Q92793); conditions: Compound concentration 10.0 uM, Protein concentration 2.0 uM
[22] = target: Bromodomain and PHD finger-containing protein 3 (Homo sapiens) (UniProt Q9ULD4); conditions: Compound concentration 10.0 uM, Protein concentration 2.0 uM
[23] = target: Histone-lysine N-methyltransferase 2A (Homo sapiens) (UniProt Q03164); conditions: Compound concentration 10.0 uM, Protein concentration 2.0 uM
[24] = target: Bromodomain and WD repeat-containing protein 3 (Homo sapiens) (UniProt Q6RI45); conditions: Compound concentration 10.0 uM, Protein concentration 2.0 uM
[25] = target: Histone-lysine N-methyltransferase ASH1L (Homo sapiens) (UniProt Q9NR48); conditions: Compound concentration 10.0 uM, Protein concentration 2.0 uM
[26] = target: Protein polybromo-1 (Homo sapiens) (UniProt Q86U86); conditions: Compound concentration 10.0 uM, Protein concentration 2.0 uM; remark: listed apart in the source
[27] = target: Bromodomain adjacent to zinc finger domain protein 2A (Homo sapiens) (UniProt Q9UIF9); conditions: Compound concentration 10.0 uM, Protein concentration 2.0 uM
[28] = target: Bromodomain adjacent to zinc finger domain protein 2B (Homo sapiens) (UniProt Q9UIF8); conditions: Compound concentration 10.0 uM, Protein concentration 2.0 uM
[29] = target: SWI/SNF-related matrix-associated actin-dependent regulator of chromatin subfamily A member 4 (Homo sapiens) (UniProt P51532); conditions: Compound concentration 10.0 uM, Protein concentration 2.0 uM
[30] = target: Protein polybromo-1 (Homo sapiens) (UniProt Q86U86); conditions: Compound concentration 10.0 uM, Protein concentration 2.0 uM; remark: listed apart in the source
[31] = target: Bromodomain-containing protein 2 (Homo sapiens) (UniProt P25440); conditions: Compound concentration 10.0 uM, Protein concentration 2.0 uM
[32] = target: Protein polybromo-1 (Homo sapiens) (UniProt Q86U86); conditions: Compound concentration 10.0 uM, Protein concentration 2.0 uM; remark: listed apart in the source
[33] = target: SWI/SNF-related matrix-associated actin-dependent regulator of chromatin subfamily A member 2 (Homo sapiens) (UniProt P51531); conditions: Compound concentration 10.0 uM, Protein concentration 2.0 uM
[34] = target: Peregrin (Homo sapiens, UniProt P55201); assay: Alphascreen assay. Binding to BRPF1B (domain start/stop: M626-G740) by alphascreen assay
[35] = target: Peregrin (Homo sapiens) (UniProt P55201); conditions: Compound concentration 10.0 uM, Protein concentration 2.0 uM; remark: listed apart in the source
[36] = target: Bromodomain testis-specific protein (Homo sapiens) (UniProt Q58F21); conditions: Compound concentration 10.0 uM, Protein concentration 2.0 uM
[37] = target: Bromodomain and WD repeat-containing protein 1 (Homo sapiens) (UniProt Q9NSI6); conditions: Compound concentration 10.0 uM, Protein concentration 2.0 uM
[38] = target: Nucleosome-remodeling factor subunit BPTF (Homo sapiens) (UniProt Q12830); conditions: Compound concentration 10.0 uM, Protein concentration 2.0 uM
[39] = target: Bromodomain-containing protein 9 (Homo sapiens) (UniProt Q9H8M2); conditions: Compound concentration 10.0 uM, Protein concentration 2.0 uM
[40] = target: Histone acetyltransferase p300 (Homo sapiens) (UniProt Q09472); conditions: Compound concentration 10.0 uM, Protein concentration 2.0 uM
[41] = target: Protein polybromo-1 (Homo sapiens) (UniProt Q86U86); conditions: Compound concentration 10.0 uM, Protein concentration 2.0 uM; remark: listed apart in the source
[42] = target: T2, CREB-binding protein; assay: Alphascreen assay. Binding to CREBBPA (domain start/stop: R1081-G1197) by alphascreen assay
[43] = target: Protein polybromo-1 (Homo sapiens) (UniProt Q86U86); conditions: Compound concentration 10.0 uM, Protein concentration 2.0 uM; remark: listed apart in the source
[44] = target: Tyrosine-protein kinase BAZ1B (Homo sapiens) (UniProt Q9UIG0); conditions: Compound concentration 10.0 uM, Protein concentration 2.0 uM
[45] = target: Bromodomain-containing protein 2 (Homo sapiens) (UniProt P25440); conditions: Compound concentration 10.0 uM, Protein concentration 2.0 uM; remark: listed apart in the source
[46] = target: Transcription initiation factor TFIID subunit 1 (Homo sapiens) (UniProt P21675); conditions: Compound concentration 10.0 uM, Protein concentration 2.0 uM
[47] = target: ATPase family AAA domain-containing protein 2B (Homo sapiens) (UniProt Q9ULI0); conditions: Compound concentration 10.0 uM, Protein concentration 2.0 uM
[48] = target: Nuclear body protein SP140 (Homo sapiens) (UniProt Q13342); conditions: Compound concentration 10.0 uM, Protein concentration 2.0 uM
[49] = target: Bromodomain testis-specific protein (Homo sapiens) (UniProt Q58F21); conditions: Compound concentration 10.0 uM, Protein concentration 2.0 uM; remark: listed apart in the source
[50] = target: Transcription initiation factor TFIID subunit 1 (Homo sapiens) (UniProt P21675); conditions: Compound concentration 10.0 uM, Protein concentration 2.0 uM; remark: listed apart in the source

Protein polybromo-1 (Homo sapiens), sequence (Q86U86 whole entry, the tested form may be a part): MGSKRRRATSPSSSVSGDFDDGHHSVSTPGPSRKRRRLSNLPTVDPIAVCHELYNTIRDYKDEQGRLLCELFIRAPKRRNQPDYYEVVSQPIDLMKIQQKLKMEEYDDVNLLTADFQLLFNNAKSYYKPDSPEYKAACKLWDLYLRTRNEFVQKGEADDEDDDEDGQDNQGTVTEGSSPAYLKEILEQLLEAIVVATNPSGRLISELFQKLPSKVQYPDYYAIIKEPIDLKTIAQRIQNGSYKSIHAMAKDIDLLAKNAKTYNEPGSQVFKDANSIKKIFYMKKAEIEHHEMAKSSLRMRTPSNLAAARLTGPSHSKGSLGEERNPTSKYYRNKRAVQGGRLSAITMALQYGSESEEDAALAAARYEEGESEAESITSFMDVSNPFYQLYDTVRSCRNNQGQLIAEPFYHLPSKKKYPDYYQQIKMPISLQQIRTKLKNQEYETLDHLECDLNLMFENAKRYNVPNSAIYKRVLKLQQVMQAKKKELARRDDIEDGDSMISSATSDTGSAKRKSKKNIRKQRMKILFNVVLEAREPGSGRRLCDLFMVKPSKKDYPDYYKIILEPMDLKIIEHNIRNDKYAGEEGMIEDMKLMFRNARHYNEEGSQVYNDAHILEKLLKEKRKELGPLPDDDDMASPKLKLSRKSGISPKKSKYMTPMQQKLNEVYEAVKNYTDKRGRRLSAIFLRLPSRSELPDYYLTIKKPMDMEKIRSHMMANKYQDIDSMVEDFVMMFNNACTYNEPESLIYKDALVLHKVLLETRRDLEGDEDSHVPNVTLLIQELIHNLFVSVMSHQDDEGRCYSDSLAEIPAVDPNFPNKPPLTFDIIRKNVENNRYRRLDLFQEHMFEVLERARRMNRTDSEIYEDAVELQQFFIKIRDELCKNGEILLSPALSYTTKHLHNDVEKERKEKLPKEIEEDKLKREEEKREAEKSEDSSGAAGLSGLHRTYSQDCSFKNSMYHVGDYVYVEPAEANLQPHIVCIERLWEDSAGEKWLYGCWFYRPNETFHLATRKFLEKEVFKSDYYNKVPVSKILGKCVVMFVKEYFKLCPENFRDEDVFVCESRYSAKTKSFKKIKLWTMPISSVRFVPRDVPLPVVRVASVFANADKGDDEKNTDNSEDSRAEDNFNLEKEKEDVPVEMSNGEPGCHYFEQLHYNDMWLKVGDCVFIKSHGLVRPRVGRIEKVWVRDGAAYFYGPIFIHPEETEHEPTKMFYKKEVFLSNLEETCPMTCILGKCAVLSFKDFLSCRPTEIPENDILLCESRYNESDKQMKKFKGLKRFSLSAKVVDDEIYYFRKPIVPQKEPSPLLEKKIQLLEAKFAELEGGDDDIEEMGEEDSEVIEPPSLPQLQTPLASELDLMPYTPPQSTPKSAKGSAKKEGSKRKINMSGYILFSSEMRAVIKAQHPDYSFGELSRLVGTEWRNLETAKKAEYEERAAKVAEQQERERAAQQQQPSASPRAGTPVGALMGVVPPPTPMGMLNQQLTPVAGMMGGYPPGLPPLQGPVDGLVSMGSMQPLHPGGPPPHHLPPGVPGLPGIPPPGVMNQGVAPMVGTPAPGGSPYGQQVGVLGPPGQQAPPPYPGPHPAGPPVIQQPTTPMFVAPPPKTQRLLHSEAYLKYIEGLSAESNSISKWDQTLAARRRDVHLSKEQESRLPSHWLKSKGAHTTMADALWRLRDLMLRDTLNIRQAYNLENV
Transcription initiation factor TFIID subunit 1-like (Homo sapiens), sequence (Q8IZX4 whole entry): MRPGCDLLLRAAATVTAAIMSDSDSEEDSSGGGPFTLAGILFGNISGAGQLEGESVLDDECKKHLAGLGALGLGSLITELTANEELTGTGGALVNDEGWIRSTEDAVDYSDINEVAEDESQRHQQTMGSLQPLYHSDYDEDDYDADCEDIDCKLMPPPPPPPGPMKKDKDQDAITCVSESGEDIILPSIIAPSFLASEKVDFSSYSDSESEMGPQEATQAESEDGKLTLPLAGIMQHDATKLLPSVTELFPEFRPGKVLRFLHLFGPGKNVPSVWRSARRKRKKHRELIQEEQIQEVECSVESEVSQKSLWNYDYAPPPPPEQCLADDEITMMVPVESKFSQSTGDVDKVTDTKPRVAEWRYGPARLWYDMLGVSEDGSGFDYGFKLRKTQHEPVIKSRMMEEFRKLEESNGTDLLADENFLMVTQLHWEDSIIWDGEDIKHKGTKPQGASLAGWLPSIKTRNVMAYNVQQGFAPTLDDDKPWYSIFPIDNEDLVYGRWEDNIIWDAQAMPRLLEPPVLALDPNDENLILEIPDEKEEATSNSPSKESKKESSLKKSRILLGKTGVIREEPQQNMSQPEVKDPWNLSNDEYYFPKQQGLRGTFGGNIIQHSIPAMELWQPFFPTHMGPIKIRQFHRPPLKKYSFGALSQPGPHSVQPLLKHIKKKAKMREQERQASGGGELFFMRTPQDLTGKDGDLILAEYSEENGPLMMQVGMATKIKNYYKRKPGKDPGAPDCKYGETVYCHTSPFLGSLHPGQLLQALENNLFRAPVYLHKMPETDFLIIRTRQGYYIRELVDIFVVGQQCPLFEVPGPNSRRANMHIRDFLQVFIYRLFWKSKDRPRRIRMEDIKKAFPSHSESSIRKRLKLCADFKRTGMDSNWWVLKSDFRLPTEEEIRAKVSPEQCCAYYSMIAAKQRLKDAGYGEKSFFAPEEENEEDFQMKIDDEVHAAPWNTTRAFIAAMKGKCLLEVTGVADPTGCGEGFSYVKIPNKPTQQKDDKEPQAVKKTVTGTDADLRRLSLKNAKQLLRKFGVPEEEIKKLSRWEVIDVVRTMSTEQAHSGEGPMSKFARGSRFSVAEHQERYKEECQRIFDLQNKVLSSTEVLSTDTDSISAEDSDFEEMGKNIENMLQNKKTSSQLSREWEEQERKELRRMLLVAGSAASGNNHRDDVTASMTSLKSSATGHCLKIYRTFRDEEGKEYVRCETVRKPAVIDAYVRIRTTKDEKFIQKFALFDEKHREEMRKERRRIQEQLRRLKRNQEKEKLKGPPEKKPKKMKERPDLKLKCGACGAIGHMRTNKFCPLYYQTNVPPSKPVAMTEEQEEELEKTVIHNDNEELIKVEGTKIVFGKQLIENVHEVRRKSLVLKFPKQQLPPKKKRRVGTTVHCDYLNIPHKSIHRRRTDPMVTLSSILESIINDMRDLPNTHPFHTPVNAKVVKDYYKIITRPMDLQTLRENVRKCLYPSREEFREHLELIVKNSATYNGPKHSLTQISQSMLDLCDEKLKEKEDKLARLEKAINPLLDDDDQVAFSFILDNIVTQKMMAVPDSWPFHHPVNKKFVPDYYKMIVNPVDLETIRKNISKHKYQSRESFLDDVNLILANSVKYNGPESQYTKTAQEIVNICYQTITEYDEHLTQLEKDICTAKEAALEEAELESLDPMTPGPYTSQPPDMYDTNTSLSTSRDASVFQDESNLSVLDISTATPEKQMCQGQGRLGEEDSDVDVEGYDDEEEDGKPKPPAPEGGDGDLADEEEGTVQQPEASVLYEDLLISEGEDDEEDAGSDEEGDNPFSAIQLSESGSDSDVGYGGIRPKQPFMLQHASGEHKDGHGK
Peregrin (Homo sapiens), sequence (P55201 whole entry): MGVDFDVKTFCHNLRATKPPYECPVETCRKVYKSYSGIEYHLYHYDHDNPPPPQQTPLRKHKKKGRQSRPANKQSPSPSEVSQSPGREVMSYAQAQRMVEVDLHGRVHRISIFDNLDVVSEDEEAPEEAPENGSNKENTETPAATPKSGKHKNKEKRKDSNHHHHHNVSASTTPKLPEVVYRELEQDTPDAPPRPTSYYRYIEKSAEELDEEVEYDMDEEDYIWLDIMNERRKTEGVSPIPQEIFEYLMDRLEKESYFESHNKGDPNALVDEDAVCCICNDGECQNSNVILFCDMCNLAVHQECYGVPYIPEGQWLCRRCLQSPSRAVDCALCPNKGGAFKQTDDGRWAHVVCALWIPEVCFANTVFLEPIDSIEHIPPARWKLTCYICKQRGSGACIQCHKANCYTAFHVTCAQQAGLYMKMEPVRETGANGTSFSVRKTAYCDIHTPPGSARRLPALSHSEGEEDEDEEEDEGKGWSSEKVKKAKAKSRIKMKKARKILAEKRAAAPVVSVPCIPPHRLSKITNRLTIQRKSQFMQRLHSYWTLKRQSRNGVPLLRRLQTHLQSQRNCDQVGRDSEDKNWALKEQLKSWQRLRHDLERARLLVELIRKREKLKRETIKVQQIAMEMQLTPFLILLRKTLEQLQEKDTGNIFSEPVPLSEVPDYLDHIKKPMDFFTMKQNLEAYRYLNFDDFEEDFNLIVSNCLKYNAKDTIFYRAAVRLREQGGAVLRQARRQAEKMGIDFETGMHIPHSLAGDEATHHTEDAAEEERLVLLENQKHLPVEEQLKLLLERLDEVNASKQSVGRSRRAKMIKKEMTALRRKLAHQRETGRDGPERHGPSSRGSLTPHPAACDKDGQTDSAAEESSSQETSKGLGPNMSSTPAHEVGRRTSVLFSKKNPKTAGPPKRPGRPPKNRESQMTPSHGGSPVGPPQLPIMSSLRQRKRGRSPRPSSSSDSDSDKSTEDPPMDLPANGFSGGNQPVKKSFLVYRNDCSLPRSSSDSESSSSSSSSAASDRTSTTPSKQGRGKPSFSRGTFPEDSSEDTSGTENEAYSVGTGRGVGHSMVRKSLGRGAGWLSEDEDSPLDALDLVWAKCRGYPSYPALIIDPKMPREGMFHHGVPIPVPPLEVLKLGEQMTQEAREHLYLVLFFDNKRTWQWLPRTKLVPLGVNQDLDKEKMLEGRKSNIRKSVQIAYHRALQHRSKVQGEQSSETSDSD
Peregrin, sequence (P55201 whole entry): as above

## CC(=O)c1cc(-c2cc(C(=O)NC3CC3)ccc2C)c2ncccn12
[1]
  ΔTm: 0.61 °C
[2]
  ΔTm: -0.06 °C
[3]
  ΔTm: 0.18 °C
[4]
  ΔTm: 0.95 °C
[5]
  ΔTm: 1.78 °C
[6]
  ΔTm: 0.29 °C
[7]
  ΔTm: 1.33 °C
[8]
  ΔTm: 1.19 °C
[9]
  ΔTm: 3.76 °C
[10]
  ΔTm: 1.01 °C
[11]
  ΔTm: 1.64 °C
[12]
  ΔTm: 0.25 °C
[13]
  IC50: 2.43 µM
[14]
  ΔTm: -0.01 °C
[15]
  ΔTm: 6.98 °C
[16]
  ΔTm: 0.91 °C
[17]
  ΔTm: 0.41 °C
[18]
  IC50: 2.39 µM
[19]
  ΔTm: 0.18 °C
[20]
  ΔTm: 0.7 °C
[21]
  ΔTm: 2.98 °C
[22]
  ΔTm: 0.4 °C
[23]
  ΔTm: 0.02 °C
[24]
  ΔTm: 1.67 °C
[25]
  ΔTm: 0.38 °C
[26]
  ΔTm: 0.08 °C
[27]
  ΔTm: 1.02 °C
[28]
  ΔTm: 1.04 °C
[29]
  ΔTm: 0.08 °C
[30]
  ΔTm: -0.26 °C
[31]
  ΔTm: 1.14 °C
[32]
  ΔTm: -0.13 °C
[33]
  ΔTm: 0.13 °C
[34]
  IC50: 2.23 µM
[35]
  ΔTm: 0.67 °C
[36]
  ΔTm: 0.83 °C
[37]
  ΔTm: 0.79 °C
[38]
  ΔTm: -0.04 °C
[39]
  ΔTm: 9.32 °C
[40]
  ΔTm: 3.55 °C
[41]
  ΔTm: 0.19 °C
[42]
  IC50: 3.44 µM
[43]
  ΔTm: 0.08 °C
[44]
  ΔTm: 0.68 °C
[45]
  ΔTm: 0.84 °C
[46]
  ΔTm: 1.04 °C
[47]
  ΔTm: 0.11 °C
[48]
  ΔTm: 0.3 °C
[49]
  ΔTm: 0.61 °C
[50]
  ΔTm: 0.25 °C
